Assays:
Format in all cases: in vivo
Setaria faberi (SETFA) [1] = experiment: B1 Post-Emergence Efficacy - Test 1; conditions: 1000 g/ha, after 13 days, five point scale
Procedure: Seeds of a variety of test species are sown in standard soil in pots:— Solanum nigrum (SOLNI), Amaranthus retoflexus (AMARE), Setaria faberi (SETFA), Alopecurus myosuroides (ALOMY), Echinochloa crus-galli (ECHCG), Ipomoea hederacea (IPOHE), Lolium perenne (LOLPE). After 8 days cultivation (post-emergence) under controlled conditions in a glasshouse (at 24/16° C., day/night; 14 hours light; 65% humidity), the plants are sprayed with an aqueous spray solution derived from the formulation of the technical active ingredient in acetone/water (50:50) solution containing 0.5% Tween 20 (polyoxyethylene sorbitan monolaurate, CAS RN 9005-64-5). Compounds are applied at 1000 g/ha. The test plants are then grown in a glasshouse under controlled conditions in a glasshouse (at 24/16° C., day/night; 14 hours light; 65% humidity) and watered twice daily. After 13 days, the test is evaluated for the percentage damage caused to the plant. The biological activities are assessed on a five point scale (5=80-100%; 4=60-79%; 3=40-59%; 2=20-39%; 1=0-19%). A blank value in the table is indicative that the compound was not tested on that species.

[2] = tested on: Amaranthus retroflexus (AMARE); experiment: B2 Post-Emergence Efficacy - Test 2; conditions: 15 days after application, 0-100 scale
Summary of the method: (§1)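 Post-emergence spray, 12-day-old potted plants; IF50 formulation in water + Genapol X080 0.2% v/v. Glasshouse 24/18 or 20/16 °C, 16 h light, 65% RH, watered twice daily. Rating at 15 DAA, 0 = no damage, 100 = total kill.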

Avena fatua (AVEFA) = experiment: B2 Post-Emergence Efficacy - Test 2; conditions: 15 days after application, 0-100 scale
Summary of the method: as §1

Beta vulgaris (BEAVA) = experiment: B2 Post-Emergence Efficacy - Test 2; conditions: 15 days after application, 0-100 scale
Summary of the method: as §1

Bidens pilosa (BIDPI) = experiment: B2 Post-Emergence Efficacy - Test 2; conditions: 15 days after application, 0-100 scale
Summary of the method: as §1

[3] = tested on: Brachiaria plantaginea (BRAPL); experiment: B2 Post-Emergence Efficacy - Test 2; conditions: 15 days after application, 0=no damage, 100=total kill
Summary of the method: as §1

[4] = tested on: Digitaria sanguinalis (DIGSA); experiment: B2 Post-Emergence Efficacy - Test 2; conditions: 15 days after application, 0=no damage, 100=total kill
Summary of the method: as §1

Eleisine indica (ELEIN) = experiment: B2 Post-Emergence Efficacy - Test 2; conditions: 15 days after application, 0=no damage, 100=total kill
Summary of the method: as §1

Galium aparine (GALAP) = experiment: B2 Post-Emergence Efficacy - Test 2; conditions: 15 days after application, 0-100 scale
Summary of the method: as §1

Hordeum vulgare (HORVW) = experiment: B2 Post-Emergence Efficacy - Test 2; conditions: 15 days after application, 0-100 scale
Summary of the method: as §1

[5] = tested on: Ipomoea hederacea (IPOHE); experiment: B2 Post-Emergence Efficacy - Test 2; conditions: 15 days after application, 0-100 scale
Summary of the method: as §1

Kochia scoparia (KSHSC) = experiment: B2 Post-Emergence Efficacy - Test 2; conditions: 15 days after application, 0-100 scale
Summary of the method: as §1

Setaria faberi (SETFA) [6] = experiment: B2 Post-Emergence Efficacy - Test 2; conditions: 15 days after application, 0=no damage, 100=total kill
Summary of the method: as §1

Sinapis arvensis (SINAR) = experiment: B2 Post-Emergence Efficacy - Test 2; conditions: 15 days after application, 0-100 scale
Summary of the method: as §1

[7] = tested on: Triticum aestivum (TRZAW); experiment: B2 Post-Emergence Efficacy - Test 2; conditions: 15 days after application, 0-100 scale
Summary of the method: as §1

Veronica persica (VERPE) = experiment: B2 Post-Emergence Efficacy - Test 2; conditions: 15 days after application, 0-100 scale
Summary of the method: as §1

Cc1nn(C)c(=O)c(-c2c(F)ccc(Cl)c2CCc2ccccc2C(F)(F)F)c1O [Compound 1.066, 4-[3-chloro-6-fluoro-2-[2-[2-(trifluoromethyl)phenyl]ethyl]phenyl]-5-hydroxy-2,6-dimethyl-pyridazin-3-one]
percentage damage caused to the plant, SETFA (Setaria faberi (SETFA) [1]): 5 (5=80-100%) | Herbicidal activity AMARE ([2]; 15 g/Ha): 90 | Herbicidal activity AMARE ([2]; 30 g/Ha): 90 | Herbicidal activity AMARE ([2]; 60 g/Ha): 90 | Herbicidal activity AMARE ([2]; 125 g/Ha): 100 | Herbicidal activity AMARE ([2]; 250 g/Ha): 100 | Herbicidal activity AMARE ([2]; 500 g/Ha): 100 | Herbicidal activity AVEFA (Avena fatua (AVEFA); 15 g/Ha): 0 | Herbicidal activity AVEFA (Avena fatua (AVEFA); 30 g/Ha): 20 | Herbicidal activity AVEFA (Avena fatua (AVEFA); 60 g/Ha): 40 | Herbicidal activity AVEFA (Avena fatua (AVEFA); 125 g/Ha): 90 | Herbicidal activity AVEFA (Avena fatua (AVEFA); 250 g/Ha): 90 | Herbicidal activity AVEFA (Avena fatua (AVEFA); 500 g/Ha): 90 | Herbicidal activity BEAVA (Beta vulgaris (BEAVA); 15 g/Ha): 80 | Herbicidal activity BEAVA (Beta vulgaris (BEAVA); 30 g/Ha): 80 | Herbicidal activity BEAVA (Beta vulgaris (BEAVA); 60 g/Ha): 80 | Herbicidal activity BEAVA (Beta vulgaris (BEAVA); 125 g/Ha): 80 | Herbicidal activity BEAVA (Beta vulgaris (BEAVA); 250 g/Ha): 80 | Herbicidal activity BEAVA (Beta vulgaris (BEAVA); 500 g/Ha): 90 | Herbicidal activity BIDPI (Bidens pilosa (BIDPI); 15 g/Ha): 50 | Herbicidal activity BIDPI (Bidens pilosa (BIDPI); 30 g/Ha): 60 | Herbicidal activity BIDPI (Bidens pilosa (BIDPI); 60 g/Ha): 70 | Herbicidal activity BIDPI (Bidens pilosa (BIDPI); 125 g/Ha): 80 | Herbicidal activity BIDPI (Bidens pilosa (BIDPI); 250 g/Ha): 90 | Herbicidal activity BIDPI (Bidens pilosa (BIDPI); 500 g/Ha): 90 | Herbicidal activity on a 0-100 scale, BRAPL ([3]; 15 g/Ha): 0 | Herbicidal activity on a 0-100 scale, BRAPL ([3]; 30 g/Ha): 60 | Herbicidal activity on a 0-100 scale, BRAPL ([3]; 125 g/Ha): 80 | Herbicidal activity on a 0-100 scale, BRAPL ([3]; 250 g/Ha): 70 | Herbicidal activity on a 0-100 scale, BRAPL ([3]; 500 g/Ha): 100 | Herbicidal activity on a 0-100 scale, DIGSA ([4]; 15 g/Ha): 0 | Herbicidal activity on a 0-100 scale, DIGSA ([4]; 30 g/Ha): 20 | Herbicidal activity on a 0-100 scale, DIGSA ([4]; 60 g/Ha): 20 | Herbicidal activity on a 0-100 scale, DIGSA ([4]; 125 g/Ha): 40 | Herbicidal activity on a 0-100 scale, DIGSA ([4]; 250 g/Ha): 70 | Herbicidal activity on a 0-100 scale, DIGSA ([4]; 500 g/Ha): 70 | Herbicidal activity on a 0-100 scale, ELEIN (Eleisine indica (ELEIN); 15 g/Ha): 0 | Herbicidal activity on a 0-100 scale, ELEIN (Eleisine indica (ELEIN); 30 g/Ha): 20 | Herbicidal activity on a 0-100 scale, ELEIN (Eleisine indica (ELEIN); 60 g/Ha): 70 | Herbicidal activity on a 0-100 scale, ELEIN (Eleisine indica (ELEIN); 125 g/Ha): 70 | Herbicidal activity on a 0-100 scale, ELEIN (Eleisine indica (ELEIN); 250 g/Ha): 70 | Herbicidal activity on a 0-100 scale, ELEIN (Eleisine indica (ELEIN); 500 g/Ha): 80 | Herbicidal activity GALAP (Galium aparine (GALAP); 15 g/Ha): 20 | Herbicidal activity GALAP (Galium aparine (GALAP); 30 g/Ha): 20 | Herbicidal activity GALAP (Galium aparine (GALAP); 60 g/Ha): 20 | Herbicidal activity GALAP (Galium aparine (GALAP); 125 g/Ha): 20 | Herbicidal activity GALAP (Galium aparine (GALAP); 250 g/Ha): 30 | Herbicidal activity GALAP (Galium aparine (GALAP); 500 g/Ha): 90 | Herbicidal activity HORVW (Hordeum vulgare (HORVW); 15 g/Ha): 0 | Herbicidal activity HORVW (Hordeum vulgare (HORVW); 30 g/Ha): 10 | Herbicidal activity HORVW (Hordeum vulgare (HORVW); 60 g/Ha): 20 | Herbicidal activity HORVW (Hordeum vulgare (HORVW); 125 g/Ha): 70 | Herbicidal activity HORVW (Hordeum vulgare (HORVW); 250 g/Ha): 80 | Herbicidal activity HORVW (Hordeum vulgare (HORVW); 500 g/Ha): 90 | Herbicidal activity IPOHE ([5]; 15 g/Ha): 70 | Herbicidal activity IPOHE ([5]; 30 g/Ha): 90 | Herbicidal activity IPOHE ([5]; 60 g/Ha): 90 | Herbicidal activity IPOHE ([5]; 125 g/Ha): 100 | Herbicidal activity IPOHE ([5]; 250 g/Ha): 100 | Herbicidal activity IPOHE ([5]; 500 g/Ha): 100 | Herbicidal activity KCHSC (Kochia scoparia (KSHSC); 15 g/Ha): 0 | Herbicidal activity KCHSC (Kochia scoparia (KSHSC); 30 g/Ha): 0 | Herbicidal activity KCHSC (Kochia scoparia (KSHSC); 60 g/Ha): 0 | Herbicidal activity KCHSC (Kochia scoparia (KSHSC); 125 g/Ha): 10 | Herbicidal activity KCHSC (Kochia scoparia (KSHSC); 250 g/Ha): 20 | Herbicidal activity KCHSC (Kochia scoparia (KSHSC); 500 g/Ha): 20 | Herbicidal activity on a 0-100 scale, SETFA (Setaria faberi (SETFA) [6]; 15 g/Ha): 0 | Herbicidal activity on a 0-100 scale, SETFA (Setaria faberi (SETFA) [6]; 30 g/Ha): 70 | Herbicidal activity on a 0-100 scale, SETFA (Setaria faberi (SETFA) [6]; 60 g/Ha): 70 | Herbicidal activity on a 0-100 scale, SETFA (Setaria faberi (SETFA) [6]; 125 g/Ha): 80 | Herbicidal activity on a 0-100 scale, SETFA (Setaria faberi (SETFA) [6]; 250 g/Ha): 90 | Herbicidal activity on a 0-100 scale, SETFA (Setaria faberi (SETFA) [6]; 500 g/Ha): 90 | Herbicidal activity SINAR (Sinapis arvensis (SINAR); 15 g/Ha): 60 | Herbicidal activity SINAR (Sinapis arvensis (SINAR); 30 g/Ha): 60 | Herbicidal activity SINAR (Sinapis arvensis (SINAR); 60 g/Ha): 80 | Herbicidal activity SINAR (Sinapis arvensis (SINAR); 125 g/Ha): 90 | Herbicidal activity SINAR (Sinapis arvensis (SINAR); 250 g/Ha): 90 | Herbicidal activity SINAR (Sinapis arvensis (SINAR); 500 g/Ha): 90 | Herbicidal activity TRZAW ([7]; 15 g/Ha): 0 | Herbicidal activity TRZAW ([7]; 30 g/Ha): 10 | Herbicidal activity TRZAW ([7]; 60 g/Ha): 40 | Herbicidal activity TRZAW ([7]; 125 g/Ha): 60 | Herbicidal activity TRZAW ([7]; 250 g/Ha): 70 | Herbicidal activity TRZAW ([7]; 500 g/Ha): 80 | Herbicidal activity VERPE (Veronica persica (VERPE); 15 g/Ha): 80 | Herbicidal activity VERPE (Veronica persica (VERPE); 30 g/Ha): 90 | Herbicidal activity VERPE (Veronica persica (VERPE); 60 g/Ha): 100 | Herbicidal activity VERPE (Veronica persica (VERPE); 125 g/Ha): 100 | Herbicidal activity VERPE (Veronica persica (VERPE); 250 g/Ha): 100 | Herbicidal activity VERPE (Veronica persica (VERPE); 500 g/Ha): 100

Reference: patent US20230301300A1, “HERBICIDAL COMPOSITIONS” (SYNGENTA CROP PROTECTION AG, priority 2020, published 2023)
